Paper PMC8421406, “C9orf72-derived arginine-rich poly-dipeptides impede phase modifiers” (Nature Communications, 2021)
“Also recorded” adds a separate entry of the source. Where no end group is shown, it is not given here. HA = HA epitope tag

Tests used:
[1] = test system: Kapβ2 / MBP:FUS-NLS complex; test: Competitive pull-down: release of MBP:FUS-NLS from GST:Kapβ2; type: binding; conditions: MBP:FUS-NLS (501–526) : GST:Kapβ2 1:1, PR20:HA competitor; repeated twice
Source text: Unbound proteins were washed three times with the buffer.

[2] = test system: FUS droplets (MBP:FUS/MBP:FUS:EGFP) / Kapβ2; test: Fluorescence microscopy of FUS droplets; type: biochemical; conditions: 16 μM Kapβ2, 16 μM Kapβ2–M9M complex, 50 μM PR20, repeated three times
Kapβ2 = test: Solution NMR (1H-13C methyl) of labelled Kapβ2; type: binding
Experimental: The Kapβ2 expression plasmid was transformed into BL21(DE3) cells. The protein samples with ^1H,^13C-labeled methyl groups in deuterium background were prepared as described in a previous study. The cells were grown in medium with ^15NH4Cl (2 gL^−1, CIL) and ^2H7-glucose (2 g L^−1, CIL) in 99.9% ^2H2O (Isotec). The precursors for methyl groups of Ile, Val, and Leu, α-ketobutyric acid (50 mg L^−1) and α-ketoisovaleric acid (80 mg L^−1), and [^13CH3] methionine (50 mg L^−1) were added to the culture 1 h before the addition of IPTG. Protein expression was induced by the addition of 0.5 mM IPTG at OD600 ~ 0.6, followed by ~16 h of incubation at 25 °C. […] Protein concentration was determined spectrophotometrically at 280 nm using a corresponding extinction coefficient.
The isotopically labeled Kapβ2 was prepared in the NMR buffer containing 20 mM ^2H-Tris pH 7.4, 150 mM NaCl, 2 mM MgCl2, 2 mM DTT, and 2% glycerol, concentrated to 20 μM. […] Perturbation of the side chain methyl resonances were each monitored using ^1H-^13C heteronuclear multiple quantum coherence. […] The perturbations of the resonances were evaluated based on chemical shift change or intensity change. […]
In order to investigate the interaction between Kapβ2 and PR poly-dipeptide by NMR, the NMR spectra of the isotopically labeled Kapβ2 in the absence and presence of the synthetic peptide of PR20:HA were measured. […]

Substance: PR20: twenty repeats of proline:arginine with an HA epitope tag at the C terminus, synthesized by SCRUM, Inc. (PRPRPRPRPRPRPRPRPRPRPRPRPRPRPRPRPRPRPRPR-{HA})
- Release of MBP:FUS-NLS from Kapβ2 [1]: release of MBP:FUS-NLS from Kapβ2
- Effect on FUS droplets (microscopy) [2]: not melted in the presence of PR20
- Perturbation of Kapβ2 methyl resonances (Kapβ2; 20 μM labelled Kapβ2, 20 °C, 20 mM Tris pH 7.4, 150 mM NaCl, 600/800 MHz): induced significant perturbations to several resonances of Kapβ2; also recorded: several resonances show significant perturbations induced only by PR20
- Binding site on Kapβ2 by NMR (Kapβ2; comparison of perturbations by PR20, M9M and FUS-ΔNLS): partially occupy the NLS-binding site of Kapβ2
